In PMC6503653 (European journal of medicinal chemistry, 2018):

Legend:
[1] = system: rRNA A-site; details: read-out: IC50, F-NEO screening test; range over rRNA A-sites; cited from earlier work
[2] = system: L1-stage C. elegans; test: Toxicity in C. elegans, MTT assay; format: in vivo, Caenorhabditis elegans; details: lowest concentrations used (3.13 – 1.56 μM), 24 h
[3] = system: 4 MRSA NEO-resistant strains; test: MIC against the MRSA NEO-resistant strains; format: cell-based, Staphylococcus aureus
[4] = system: E. coli and the human cytosolic A-site; test: Selectivity factor, E. coli versus human cytosolic A-site; format: binding; details: 5.75 × IC50(human)/IC50(E. coli); above 5.75 = selectivity to bacterial A-site
[5] = molecular target: APH(2″)-Ia (Staphylococcus aureus, UniProt P0A0C1); test: AME modification of conjugates, APH; format: biochemical
[6] = system: E. coli H4H; test: MIC and growth inhibition, microdilution; format: cell-based, Escherichia coli; details: concentration not given

Sequence of APH(2″)-Ia (P0A0C1 whole entry): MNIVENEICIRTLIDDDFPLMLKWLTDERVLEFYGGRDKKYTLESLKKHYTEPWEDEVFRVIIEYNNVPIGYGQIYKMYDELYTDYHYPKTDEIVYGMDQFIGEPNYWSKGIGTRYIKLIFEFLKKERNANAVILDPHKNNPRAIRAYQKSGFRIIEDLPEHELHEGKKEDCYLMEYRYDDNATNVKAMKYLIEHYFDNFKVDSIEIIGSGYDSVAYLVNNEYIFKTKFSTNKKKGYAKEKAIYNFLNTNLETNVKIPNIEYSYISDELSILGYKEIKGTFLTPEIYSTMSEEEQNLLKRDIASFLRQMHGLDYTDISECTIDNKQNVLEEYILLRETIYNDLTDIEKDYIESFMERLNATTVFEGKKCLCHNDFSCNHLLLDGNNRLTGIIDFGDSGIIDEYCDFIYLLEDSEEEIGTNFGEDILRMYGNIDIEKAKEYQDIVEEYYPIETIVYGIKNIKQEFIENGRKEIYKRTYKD

Row | SMILES | MIC values times lower than that of NEO [3] | Selectivity factor [4] | other results
1 | NC[C@@H]1O[C@H](O[C@H]2[C@@H](O)[C@H](O[C@@H]3[C@@H](O)[C@H](N)C[C@H](N)[C@H]3O[C@H]3O[C@H](CN)[C@@H](O)[C@H](O)[C@H]3N)O[C@@H]2CO)[C@H](N)[C@@H](O)[C@@H]1O [NEO, Neomycin B] |  |  | IC50 [1]: 68 to 114 nM; toxicity / larvae viability compared with the untreated control [2]: no significant difference
2 | NC[C@@H]1O[C@H](O[C@H]2[C@@H](O)[C@H](O[C@@H]3[C@@H](O)[C@H](N)C[C@H](N)[C@H]3O[C@H]3O[C@H](CN)[C@@H](O)[C@H](O)[C@H]3N)O[C@@H]2CNC(=O)CCCc2ccc3ccc4cccc5ccc2c3c45)[C@H](N)[C@@H](O)[C@@H]1O [Compound 12] | 4-16 times | 6.76 | 
3 | NC[C@@H]1O[C@H](O[C@H]2[C@@H](O)[C@H](O[C@@H]3[C@@H](O)[C@H](N)C[C@H](N)[C@H]3O[C@H]3O[C@H](CN)[C@@H](O)[C@H](O)[C@H]3N)O[C@@H]2CNC(=O)CCc2ccc3ccc4cccc5ccc2c3c45)[C@H](N)[C@@H](O)[C@@H]1O [Compound 11] |  | 8.29 | 
4 | NC[C@@H]1O[C@H](O[C@H]2[C@@H](O)[C@H](O[C@@H]3[C@@H](O)[C@H](N)C[C@H](N)[C@H]3O[C@H]3O[C@H](CN)[C@@H](O)[C@H](O)[C@H]3N)O[C@@H]2CSCCNC(=O)CCc2ccc3ccc4cccc5ccc2c3c45)[C@H](N)[C@@H](O)[C@@H]1O [Compound 14] |  | 6.14 | 
5 | NC[C@@H]1O[C@H](O[C@H]2[C@@H](O)[C@H](O[C@@H]3[C@@H](O)[C@H](N)C[C@H](N)[C@H]3O[C@H]3O[C@H](CN)[C@@H](O)[C@H](O)[C@H]3N)O[C@@H]2CNC(=O)Cc2ccc3ccc4cccc5ccc2c3c45)[C@H](N)[C@@H](O)[C@@H]1O [Compound 10] |  | 7.12 | 
6 | NC[C@@H]1O[C@H](O[C@H]2[C@@H](O)[C@H](O[C@@H]3[C@@H](O)[C@H](N)C[C@H](N)[C@H]3O[C@H]3O[C@H](CN)[C@@H](O)[C@H](O)[C@H]3N)O[C@@H]2CSCCNC(=O)Cc2ccc3ccc4cccc5ccc2c3c45)[C@H](N)[C@@H](O)[C@@H]1O [Compound 13] | 4-16 times | 5.87 | 
7 | NC[C@@H]1O[C@H](O[C@H]2[C@@H](O)[C@H](O[C@@H]3[C@@H](O)[C@H](N)C[C@H](N)[C@H]3O[C@H]3O[C@H](CN)[C@@H](O)[C@H](O)[C@H]3N)O[C@@H]2CSCCNC(=O)CCCc2ccc3ccc4cccc5ccc2c3c45)[C@H](N)[C@@H](O)[C@@H]1O [Compound 15] | 4-16 times | 6.80 | modification by APH(2″)-Ia relative to NEO [5]: increased activity; reduction in growth / growth inhibition [6]: * A 30% reduction in growth was observed for compounds 15 and 16 with E. coli H4H.
8 | NC[C@@H]1O[C@H](O[C@H]2[C@@H](O)[C@H](O[C@@H]3[C@@H](O)[C@H](N)C[C@H](N)[C@H]3O[C@H]3O[C@H](CN)[C@@H](O)[C@H](O)[C@H]3N)O[C@@H]2CSCCNC(=S)NCCCCCCNC(=O)CCCc2ccc3ccc4cccc5ccc2c3c45)[C@H](N)[C@@H](O)[C@@H]1O [Compound 16] | 4-16 times | 5.70 | reduction in growth / growth inhibition [6]: * A 30% reduction in growth was observed for compounds 15 and 16 with E. coli H4H.
